In ChEMBL document CHEMBL5230081, “Battle against Vancomycin-Resistant Bacteria: Recent Developments in Chemical Strategies” (J Med Chem, 2019):
Converted amounts (≈) assume the structure as drawn.

Assays:
Type in all cases: functional
Staphylococcus aureus [1] = assay: Antimicrobial activity against Vancomycin-resistant Staphylococcus aureus incubated for 20 hrs by broth dilution method
Enterococcus faecalis = assay: Antimicrobial activity against Vancomycin - resistant Enterococcus faecalis assessed as inhibition of bacterial growth
Enterococcus faecium = assay: Antimicrobial activity against Vancomycin-resistant (Van A) Enterococcus faecium ATCC 51559 assessed as reduction in microbial growth
Staphylococcus aureus [2] = assay: Antibacterial activity against Vancomycin-intermediate Staphylococcus aureus NRS1 assessed as bacterial growth inhibition
[3] = Enterococcus faecium, ATCC 51559, read-out: MIC

Structure (SMILES) | MIC (Enterococcus faecalis) | MIC (Enterococcus faecium) | MIC (Enterococcus faecium; [3]) | also measured
CC(=O)OCC1=C(C(=O)O)N2C(=O)[C@@H](NC(=O)CCC[C@@H](N)C(=O)O)[C@H]2SC1 [CEPHALOSPORIN C] | < 0.5 µg/mL |  |  | MIC (Staphylococcus aureus [1]): 1 µg/mL
CN[C@H](CC(C)C)C(=O)N[C@H]1C(=O)N[C@@H](CC(N)=O)C(=O)N[C@H]2C(=S)N[C@H]3C(=O)N[C@H](C(=O)N[C@H](C(=O)O)c4cc(O)cc(O)c4-c4cc3ccc4O)[C@H](O)c3ccc(c(Cl)c3)Oc3cc2cc(c3O[C@@H]2O[C@H](CO)[C@@H](O)[C@H](O)[C@H]2O[C@H]2C[C@](C)(NCc3ccc(-c4ccc(Cl)cc4)cc3)[C@H](O)[C@H](C)O2)Oc2ccc(cc2Cl)[C@H]1O | 2 µg/mL | 2 µg/mL | 4 µg/mL | 
CN[C@H](CC(C)C)C(=O)N[C@H]1C(=O)N[C@@H](CC(N)=O)C(=O)N[C@H]2C(=O)N[C@H]3C(=O)N[C@H](C(=O)N[C@H](C(=O)O)c4ccccc4-c4cccc3c4)[C@H](O)c3ccc(c(Cl)c3)Oc3cc2cc(c3O[C@@H]2O[C@H](CO)[C@@H](O)[C@H](O)[C@H]2O[C@H]2C[C@](C)(NCc3ccc(OCCCN4C(=O)[C@@H]5[C@H](C4=O)[C@@H](C)C[C@H]5/C=C/c4ccccc4)cc3)[C@H](O)[C@H](C)O2)Oc2ccc(cc2Cl)[C@H]1O |  | 2 µg/mL | 31 µg/mL | 
CN[C@H](CC(C)C)C(=O)N[C@H]1C(=O)N[C@@H](CC(N)=O)C(=O)N[C@H]2C(=O)N[C@H]3C(=O)N[C@H](C(=O)N[C@H](C(=O)O)c4cc(OC)cc(OC)c4-c4cc3ccc4OC)[C@H](O)c3ccc(c(Cl)c3)Oc3cc2cc(c3OC)Oc2ccc(cc2Cl)[C@H]1O |  | 1.6 µg/mL |  | 
CN[C@H]1C(=O)N[C@@H]2Cc3ccc(cc3)Oc3cc4cc(c3O[C@@H]3O[C@H](C(=O)O)[C@@H](O)[C@H](O)[C@H]3NC(=O)CCCCCCCCC(C)C)Oc3ccc(cc3Cl)[C@@H](O)[C@@H]3NC(=O)[C@H](NC(=O)[C@@H]4NC(=O)[C@@H](NC2=O)c2cc(cc(O)c2Cl)Oc2cc1ccc2O)c1ccc(O)c(c1)-c1c(O[C@H]2O[C@H](CO)[C@@H](O)[C@H](O)[C@@H]2O)cc(O)cc1[C@@H](C(=O)NCCCN(C)C)NC3=O [DALBAVANCIN] |  | 0.1 µg/mL |  | 
CN[C@H](CC(C)C)C(=O)N[C@H]1C(=O)N[C@@H](CC(N)=O)C(=O)N[C@H]2C(=N)N[C@H]3C(=O)N[C@H](C(=O)N[C@H](C(=O)O)c4cc(O)cc(O)c4-c4cc3ccc4O)[C@H](O)c3ccc(c(Cl)c3)Oc3cc2cc(c3O[C@@H]2O[C@H](CO)[C@@H](O)[C@H](O)[C@H]2O[C@H]2C[C@](C)(NCc3ccc(-c4ccc(Cl)cc4)cc3)[C@H](O)[C@H](C)O2)Oc2ccc(cc2Cl)[C@H]1O | 0.005 µg/mL | 0.06 µg/mL | 0.005 µg/mL | 
CN[C@H](CC(C)C)C(=O)N[C@H]1C(=O)N[C@@H](CC(N)=O)C(=O)N[C@H]2C(=O)N[C@H]3C(=O)N[C@H](C(=O)N[C@H](C(=O)NCCCNCCCCCCCCNCCCNC(=O)[C@H]4NC(=O)[C@H]5NC(=O)[C@H](NC(=O)[C@@H]6NC(=O)[C@H](CC(N)=O)NC(=O)[C@H](NC(=O)[C@@H](CC(C)C)NC)[C@H](O)c7ccc(c(Cl)c7)Oc7cc6cc(c7O[C@@H]6O[C@H](CO)[C@@H](O)[C@H](O)[C@H]6O[C@H]6C[C@](C)(N)[C@H](O)[C@H](C)O6)Oc6ccc(cc6Cl)[C@H]5O)c5ccc(O)c(c5)-c5c(O)cc(O)cc54)c4cc(O)cc(O)c4-c4cc3ccc4O)[C@H](O)c3ccc(c(Cl)c3)Oc3cc2cc(c3O)Oc2ccc(cc2Cl)[C@H]1O |  | 0.1 µM | 48 µM | 
CN[C@H](CC(C)C)C(=O)N[C@H]1C(=O)N[C@@H](CC(N)=O)C(=O)N[C@H]2C(=N)N[C@H]3C(=O)N[C@H](C(=O)N[C@H](C(=O)O)c4cc(O)cc(O)c4-c4cc3ccc4O)[C@H](O)c3ccc(c(Cl)c3)Oc3cc2cc(c3O[C@@H]2O[C@H](CO)[C@@H](O)[C@H](O)[C@H]2O[C@H]2C[C@](C)(N)[C@H](O)[C@H](C)O2)Oc2ccc(cc2Cl)[C@H]1O | 0.5 µg/mL |  | 0.5 µg/mL | 
CCCCCCCCCC(=O)OC[C@H]1O[C@@H](Oc2c3cc4cc2Oc2ccc(cc2Cl)[C@@H](O)[C@@H](NC(=O)[C@@H](CC(C)C)NC)C(=O)N[C@@H](CC(N)=O)C(=O)N[C@H]4C(=O)N[C@H]2C(=O)N[C@H](C(=O)N[C@H](C(=O)O)c4ccccc4-c4cccc2c4)[C@H](O)c2ccc(c(Cl)c2)O3)[C@H](O[C@H]2C[C@](C)(N)[C@H](O)[C@H](C)O2)[C@@H](O)[C@@H]1O |  | 1 µg/mL |  | 
CN[C@H](CC(C)C)C(=O)N[C@H]1C(=O)N[C@@H](CC(N)=O)C(=O)N[C@H]2C(=O)N[C@H]3C(=O)N[C@H](C(=O)N[C@H](C(=O)O)c4cc(O)cc(O)c4-c4cc3ccc4O)[C@H](O)c3ccc(c(Cl)c3)Oc3cc2cc(c3O[C@@H]2O[C@H](CO)[C@@H](O)[C@H](O)[C@H]2O[C@H]2C[C@](C)(NCc3cccc(OCC/C=C\CCOc4cccc(CN[C@@]5(C)C[C@H](O[C@H]6[C@H](Oc7c8cc9cc7Oc7ccc(cc7Cl)[C@@H](O)[C@@H](NC(=O)[C@@H](CC(C)C)NC)C(=O)N[C@@H](CC(N)=O)C(=O)N[C@H]9C(=O)N[C@H]7C(=O)N[C@H](C(=O)N[C@H](C(=O)O)c9cc(O)cc(O)c9-c9cc7ccc9O)[C@H](O)c7ccc(c(Cl)c7)O8)O[C@H](CO)[C@@H](O)[C@@H]6O)O[C@@H](C)[C@H]5O)c4)c3)[C@H](O)[C@H](C)O2)Oc2ccc(cc2Cl)[C@H]1O |  |  |  | MIC (Staphylococcus aureus [2]): 1 µg/mL (≈ 0.313 µM)
CN[C@H](CC(C)C)C(=O)N[C@H]1C(=O)N[C@@H](CC(N)=O)C(=O)N[C@H]2C(=O)N[C@H]3C(=O)N[C@H](C(=O)N[C@H](C(=O)NCCCCCCNC(=O)[C@H]4NC(=O)[C@H]5NC(=O)[C@H](NC(=O)[C@@H]6NC(=O)[C@H](CC(N)=O)NC(=O)[C@H](NC(=O)[C@@H](CC(C)C)NC)[C@H](O)c7ccc(c(Cl)c7)Oc7cc6cc(c7O[C@@H]6O[C@H](CO)[C@@H](O)[C@H](O)[C@H]6O[C@H]6C[C@](C)(N)[C@H](O)[C@H](C)O6)Oc6ccc(cc6Cl)[C@H]5O)c5ccc(O)c(c5)-c5c(O)cc(O)cc54)c4cc(O)cc(O)c4-c4cc3ccc4O)[C@H](O)c3ccc(c(Cl)c3)Oc3cc2cc(c3O[C@@H]2O[C@H](CO)[C@@H](O)[C@H](O)[C@H]2O[C@H]2C[C@](C)(N)[C@H](O)[C@H](C)O2)Oc2ccc(cc2Cl)[C@H]1O |  |  |  | MIC (Staphylococcus aureus [1]): 32 µM
CN[C@@H](CC(C)C)C(=O)N[C@@H]1C(=O)N[C@H](CC(N)=O)C(=O)N[C@@H]2C(=O)N[C@@H]3C(=O)N[C@@H](C(=O)N[C@@H](C(=O)NCCCSSCCCNC(=O)[C@H]4NC(=O)[C@H]5NC(=O)[C@H](NC(=O)[C@@H]6NC(=O)[C@H](CC(N)=O)NC(=O)[C@H](NC(=O)[C@@H](CC(C)C)NC)[C@H](O)c7ccc(c(Cl)c7)Oc7cc6cc(c7O[C@@H]6O[C@H](CO)[C@@H](O)[C@H](O)[C@H]6O[C@H]6C[C@](C)(N)[C@H](O)[C@H](C)O6)Oc6ccc(cc6Cl)[C@H]5O)c5ccc(O)c(c5)-c5c(O)cc(O)cc54)c4cc(O)cc(O)c4-c4cc3ccc4O)[C@@H](O)c3ccc(c(Cl)c3)Oc3cc2cc(c3O[C@@H]2O[C@H](CO)[C@@H](O)[C@H](O)[C@H]2O[C@H]2C[C@](C)(N)[C@H](O)[C@H](C)O2)Oc2ccc(cc2Cl)[C@@H]1O |  |  |  | MIC (Staphylococcus aureus [1]): 15 µM
CCCCCCCCCC(=O)O[C@H]1[C@H](O)[C@@H](O[C@H]2C[C@](C)(N)[C@H](O)[C@H](C)O2)[C@H](Oc2c3cc4cc2Oc2ccc(cc2Cl)[C@@H](O)[C@@H](NC(=O)[C@@H](CC(C)C)NC)C(=O)N[C@@H](CC(N)=O)C(=O)N[C@H]4C(=O)N[C@H]2C(=O)N[C@H](C(=O)N[C@H](C(=O)O)c4ccccc4-c4cccc2c4)[C@H](O)c2ccc(c(Cl)c2)O3)O[C@@H]1CO |  |  | 16 µg/mL | 
C=C1NC(=O)[C@H]([C@@H](C)CC)NC(=O)[C@@H](NC(=O)/C(=C/C)NC(=O)[C@@H](N)[C@@H](C)CC)CSC[C@@H](C(=O)N[C@H]2C(=O)N3CCC[C@H]3C(=O)NCC(=O)N[C@H](C(=O)N[C@@H](CCCCN)C(=O)NCCCn3cc(CCC(=O)NCCCOCCOCCOCCCNC(=O)[C@H]4NC(=O)[C@H]5NC(=O)[C@H](NC(=O)[C@@H]6NC(=O)[C@H](CC(N)=O)NC(=O)[C@H](NC(=O)[C@@H](CC(C)C)NC)[C@H](O)c7ccc(c(Cl)c7)Oc7cc6cc(c7O[C@@H]6O[C@H](CO)[C@@H](O)[C@H](O)[C@H]6O[C@H]6C[C@](C)(N)[C@H](O)[C@H](C)O6)Oc6ccc(cc6Cl)[C@H]5O)c5ccc(O)c(c5)-c5c(O)cc(O)cc54)nn3)CS[C@@H]2C)NC(=O)[C@H]([C@@H](C)CC)NC1=O | 2.3 µM |  |  | 
CN[C@H](CC(C)C)C(=O)N[C@H]1C(=O)N[C@@H](CC(N)=O)C(=O)N[C@H]2C(=O)N[C@H]3C(=O)N[C@H](C(=O)N[C@H](C(=O)O)c4cc(O)cc(O)c4-c4cc3ccc4O)[C@H](O)c3ccc(c(Cl)c3)Oc3cc2cc(c3O[C@@H]2O[C@H](CO)[C@@H](O)[C@H](O)[C@H]2O[C@H]2C[C@](C)(N)[C@H](O)[C@H](C)O2)Oc2ccc(cc2/C=C/c2ccc(-c3ccccc3)cc2)[C@H]1O |  | 2 µg/mL |  | 
CCCCCCCCCCCCCC(=O)N[C@@H](CCCCN)C(=O)N[C@@H](CCCCN)C(=O)N[C@@H](CCCCN)C(=O)NC(CCCCNC(=O)[C@H]1NC(=O)[C@H]2NC(=O)[C@H](NC(=O)[C@@H]3NC(=O)[C@H](CC(N)=O)NC(=O)[C@H](NC(=O)[C@@H](CC(C)C)NC)[C@H](O)c4ccc(c(Cl)c4)Oc4cc3cc(c4O[C@@H]3O[C@H](CO)[C@@H](O)[C@H](O)[C@H]3O[C@H]3C[C@](C)(N)[C@H](O)[C@H](C)O3)Oc3ccc(cc3Cl)[C@H]2O)c2ccc(O)c(c2)-c2c(O)cc(O)cc21)C(=O)O (stereo partly specified) |  | 0.125 µg/mL |  | MIC (Staphylococcus aureus [1]): 0.05 µg/mL; MIC (Staphylococcus aureus [2]): 0.03 µg/mL (≈ 0.0138 µM)
